# From patent publication US4861897A, “2-Aryloxyalkylaminobenzoxazoles and 2-aryloxyalkylaminobenzothiazoles” (Ortho Pharmaceutical Corporation, priority 1987, dated 1989)
# Read-outs that look alike come from different tables or passages of the source.
# Assays:
# [1] = system: histamine stimulated parietal cell; experiment: Isolated parietal cell assay, inhibition of 14C-aminopyrine accumulation, histamine stimulated; assay type: cell-based, rabbit; settings: Example 48, 37° C., read-out: IC50 vhist (inhibition of 14C-AP accumulation in histamine stimulated parietal cell)
# Protocol: (§1) Isolated Parietal Cell Assay
# (§2) The isolated parietal cell assay was conducted using the procedures of Batzri, S. et al., Biochemica et Biophysica Acta 508, 328 (1978) and Soll, A. H. Am. J. Physiol. 238, G366 (1980). Basically, parietal cells were isolated from the fundic mucosa of rabbit stomachs by a four-stage collagenase digestion process. The supernatant fractions from the last two stages of this process contain the individual parietal cells. This cell suspension was centrifuged and reconstituted in a modified Hank's buffer to contain 1-2×10^6 cells/ml. […] This accumulation was stimulated by histamine and was blocked by H2 antagonists. The cells were incubated with 0.4-0.5×10^6 cpm ^14 C-AP, with various concentrations of histamine as a stimulant, 1×10^-5 M isobutylmethylxanthine, and the test compound added in a 20 μl volume of buffer or DMSO. The flasks were incubated in a shaking water bath at 37° C. for 20 minutes. Two aliquots were then taken from each flask and cell pellets were collected by centrifugation. The pellets were solubilized with Protosol (New England Nuclear) and radioactivity determined by liquid scintillation spectrometry. Data is presented as the IC50 vhist, the concentration of compound required to inhibit ^14 C-AP accumulation in the histamine stimulated parietal cell by 50%. When dibutyryl cAMP was used to stimulate the cells instead of histamine, a similar inhibition of ^14 C-AP accumulation was measured and the data are presented as the IC50 vcAMP, the concentration required to inhibit ^14 C-AP accumulation in the cAMP stimulated parietal cells by 50%.
# acid output = experiment: Gastric secretion, acid output in pylorus ligated rats; assay type: in vivo, male Charles River Sprague Dawley derived rats; settings: Example 50, i.d. or s.c., four hours after pylorus ligation, compared to control; for response vs control in vivo at 40 mg/kg / response vs control in vivo at 20 mg/kg: Rattus norvegicus, 4 h, read-out: % Acid Secreted at mpK; for response vs control in vivo at 40 mg/kg: @ 40 mpK
# Protocol: The inhibitory activity of the compounds on acid output was tested using pylorus ligation in a modification of the procedure of Shay, H. et al., Gastroenterology 26, 906 (1954). Basically, male Charles River Sprague Dawley derived rats weighing 150-300 grams were deprived of food but not water for 18-24 hours prior to use. Water was withheld during the experiment, however. The rats were weighed, anesthetized with ether and the pylorus ligated according to the method of Shay et al., supra. Treatment or vehicle control was then administered intraduodenally (i.d.) or subcutaneously (s.c.). Rats were housed two/cage and sacrificed with CO2 four hours after ligation. The stomachs were removed, rinsed, and contents emptied into a graduated centrifuge tube. The tubes were centrifuged, the volume of gastric juice recorded, and any samples obviously contaminated by feces, food or blood were eliminated. A 1 ml aliquot of gastric juice was titrated with 0.1N NaOH to a pH of 7.0-7.4. The volume of gastric juice secreted, the acid concentration, and the product of the volume times the concentration, i.e., the total amount of acid secreted, were measured.
# [2] = system: cAMP stimulated parietal cells; experiment: Isolated parietal cell assay, inhibition of 14C-aminopyrine accumulation, dibutyryl cAMP stimulated; assay type: cell-based, rabbit; settings: Example 48, 37° C., read-out: IC50 vcAMP (inhibition of 14C-AP accumulation in cAMP stimulated parietal cells)
# Protocol: as §1, §2
# [3] = molecular target: T1, parietal cell H^+ K^+ ATPase (Oryctolagus cuniculus, UniProt P27112); experiment: Inhibition of parietal cell H+ K+ ATPase; assay type: biochemical, New Zealand white rabbits; settings: Example 49; for IC50: given as "50% @ x μM", read-out: % Inhibition at Concentration (H+ K+ ATPase): concentration given for 50% inhibition; for inhibition at 100 µM: @ 10^-4 M, read-out: % Inhibition at Concentration (H+ K+ ATPase)
# T1 construct: determined in fundic mucosa from New Zealand white rabbits which were homogenized; from tissue; host or cells: fundic mucosa of New Zealand white rabbits, homogenized; membrane protein
# Protocol: Inhibition of Parietal Cell H^+ K^+ ATPase
# The activity was measured in a 1 ml incubation volume containing 50 mM Tris pH 7.4, 2 mM MgCl2, 2 mM Na2 ATP, with or without 20 mM KCl and vehicle control (dimethylsulfoxide) or test compound added in a 0.02 ml volume. Typically, 20-50 μg membrane protein was added and the tubes were preincubated with test compound for 10 minutes at 37° C. Substrate, Na2 ATP, was then added and the tubes were incubated for another 15 minutes at 37° C. The reaction was stopped by the addition of 1 ml 14% trichloroacetic acid and the samples were centrifuged at 2,000 xg for 10 minutes. The amount of inorganic phosphate present in an aliquot of supernatant was determined. H^+ K^+ ATPase activity was determined after correcting for the basal (Mg^++ only) enzyme activity present in the membrane preparation.
# T1 sequence (P27112 2-1035 limits assumed): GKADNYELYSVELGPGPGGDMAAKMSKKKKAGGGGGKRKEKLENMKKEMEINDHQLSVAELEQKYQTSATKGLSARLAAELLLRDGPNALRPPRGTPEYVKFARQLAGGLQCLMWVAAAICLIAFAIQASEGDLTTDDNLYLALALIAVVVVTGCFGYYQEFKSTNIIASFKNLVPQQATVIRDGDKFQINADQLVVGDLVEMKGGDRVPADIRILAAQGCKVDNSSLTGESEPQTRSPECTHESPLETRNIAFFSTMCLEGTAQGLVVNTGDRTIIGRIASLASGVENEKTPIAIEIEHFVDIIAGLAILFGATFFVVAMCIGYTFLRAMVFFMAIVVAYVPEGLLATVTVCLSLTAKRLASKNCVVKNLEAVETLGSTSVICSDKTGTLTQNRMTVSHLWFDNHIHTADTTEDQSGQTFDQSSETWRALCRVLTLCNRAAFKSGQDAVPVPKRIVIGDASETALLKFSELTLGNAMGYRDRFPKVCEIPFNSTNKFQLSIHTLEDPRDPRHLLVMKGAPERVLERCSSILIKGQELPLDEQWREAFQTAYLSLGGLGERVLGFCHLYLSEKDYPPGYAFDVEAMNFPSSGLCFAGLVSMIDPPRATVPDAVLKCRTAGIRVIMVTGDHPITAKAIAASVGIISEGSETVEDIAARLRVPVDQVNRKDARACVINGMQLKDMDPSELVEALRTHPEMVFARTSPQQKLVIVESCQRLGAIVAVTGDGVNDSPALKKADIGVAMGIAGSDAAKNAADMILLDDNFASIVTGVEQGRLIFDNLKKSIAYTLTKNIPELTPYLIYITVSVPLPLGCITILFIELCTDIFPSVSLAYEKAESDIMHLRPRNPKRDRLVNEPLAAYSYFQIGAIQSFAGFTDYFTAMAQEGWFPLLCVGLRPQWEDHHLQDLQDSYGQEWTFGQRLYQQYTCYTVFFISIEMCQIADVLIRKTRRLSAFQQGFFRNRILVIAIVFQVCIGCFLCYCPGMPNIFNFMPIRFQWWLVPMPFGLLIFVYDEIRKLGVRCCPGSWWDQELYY
# T1 sequence (P18597 whole entry partner): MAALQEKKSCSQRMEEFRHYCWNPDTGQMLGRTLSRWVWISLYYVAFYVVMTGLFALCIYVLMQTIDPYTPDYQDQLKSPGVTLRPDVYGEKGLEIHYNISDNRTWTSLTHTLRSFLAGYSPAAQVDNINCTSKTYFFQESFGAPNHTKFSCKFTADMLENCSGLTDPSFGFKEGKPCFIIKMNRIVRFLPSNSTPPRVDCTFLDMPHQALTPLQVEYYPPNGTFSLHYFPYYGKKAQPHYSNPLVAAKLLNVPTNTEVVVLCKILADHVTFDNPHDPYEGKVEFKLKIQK
Compound,"IC50 ([1]; Oryctolagus cuniculus, 20 min) [nM]",response vs control in vivo at 40 mg/kg (acid output) [%],"IC50 ([2]; Oryctolagus cuniculus, 20 min) [nM]",IC50 [3] [µM],response vs control in vivo at 20 mg/kg (acid output; @ 20 mpK) [%],inhibition at 100 µM [3] [%],% Acid Secreted at mpK (acid output; @ 10 mpK) [%],IC50 ([1]; 20 minutes) [nM],% Acid Secreted at mpK (acid output; @ 20 mpK) [%],IC50 ([2]; 20 minutes) [nM]
"C(=C\c1nc2ccccc2o1)/c1ccc(OCCCCN2CCCC2)cc1 [Example 23, (E)-2-[2-(4-Pyrrolinobutoxyphenyl)ethenyl]benzoxazole]",170,24,240,84,,,,,,
C(=C\c1nc2ccccc2o1)/c1ccc(OCCCCCn2ccnc2)cc1 [Example 24],280,,230,13,45,,,,,
CCCCN(CCCC)CCCOc1cccc(/C=C/c2nc3ccccc3s2)c1 [Example 25],200,,330,,40,61,,,,
"CCCN(CCC)CCCCOc1cccc(/C=C/c2nc3ccccc3s2)c1 [Example 26, (E)-2-[2-(3-Dipropylaminobutoxyphenyl)ethenyl]benzothiazole]",90,80,180,19,42,,,,,
C(=C\c1nc2ccccc2s1)/c1cccc(OCCCCn2ccnc2)c1 [Example 27],110,83,210,4.7,42,,,,,
"CCCCN(CCCC)CCCOc1ccc(/C=C/c2nc3ccccc3s2)cc1 [Example 28, (E)-2-[2-(4-Dibutylaminopropoxyphenyl)ethenyl]benzothiazole]",21000,,450,,49,46,25,,,
COc1ccccc1N1CCN(CCCOc2ccc(/C=C/c3nc4ccccc4s3)cc2)CC1 [Example 31],1700,,3400,,11,33,,,,
"CCCCN(CCCC)CCCOc1ccc(/C=C/c2nc3cc(C)ccc3s2)cc1 [Example 34, (E)-2-[2-(4-Dibutylaminopropoxyphenyl)ethenyl]-5-methylbenzothiazole]",290,,530,,14,52,,,,
"CCCCN(CCCC)CCCOc1ccc(/C=C/c2nc3ccc(OC)cc3s2)cc1 [Example 35, (E)-2-[2-(4-Dibutylaminopropoxyphenyl)ethenyl]-6-methoxybenzothiazole]",260,,460,60,31,,,,,
"CCCCN(CCCC)CCCOc1ccc(/C=C/c2nc3cc(Cl)ccc3s2)cc1 [Example 36, (E)-2-[2-(4-Dibutylaminopropoxyphenyl)ethenyl]-5-chlorobenzothiazole]",400,26,500,,,52,,,,
"CCCCN(CCCC)CCOc1ccc(/C=C/c2nc3ccccc3s2)cc1 [Example 37, (E)-2-[2-(4-Dibutylaminoethoxyphenyl)ethenyl]benzothiazole]",430,,600,,14,43,,,,
CCCN(CCC)CCCCOc1ccc(/C=C/c2nc3ccccc3s2)cc1 [Example 38],30,93,120,21,,,,,,
C(=C\c1nc2ccccc2s1)/c1ccc(OCCn2ccnc2)cc1 [Example 39],390,32,460,,,19,,,,
CCN(CC)CCCCOc1ccc(/C=C/c2nc3ccccc3s2)cc1 [Example 41],180,,350,44,52,,,,,
"C(=C\c1nc2ccccc2s1)/c1ccc(OCCCCN2CCCC2)cc1 [Example 42, (E)-2-[2-(4-Pyrrolidinobutoxyphenyl)ethenyl]benzothiazole]",160,20,260,17,,,,,,
"CCCN(CCC)CCCOc1ccc(-c2nc3ccccc3s2)cc1 [Example 44, 2-(4-Dipropylaminopropoxyphenyl)benzothiazole]",210,,140,,42,67,,,,
"CCCN(CCC)CCCCOc1ccc(/C=C/c2nc3ccccc3o2)cc1Cl [Example 45, (E)-2-[2-(3-Chloro-4-dipropylaminobutoxyphenyl]ethenyl]benzoxazole]",800,,740,17.5,42,,,,,
"CCCN(CCC)CCCOc1c(OC)cc(/C=C/c2nc3ccccc3o2)cc1OC [Example 46, (E)-2-[2-(3,5-Dimethoxy-4-dipropylaminopropoxyphenyl)ethenyl]benzoxazole]",150,,360,33,46,,,,,
CCCN(CCC)CCCOc1c(C)cc(/C=C/c2nc3ccccc3o2)cc1C [Example 47],140,,100,15,90,,,,,
(E)-2-[2-[4-(3-Methylbenzylaminopropoxy)phenyl]ethenyl]benzoxazole [Example 13],,,,66,,,,410,34,1400
